From patent US20250122225A1, “MASP-2 INHIBITORS AND METHODS OF USE” (Omeros Corporation, priority 2023, published 2025)
pIC50, pKi: −log10 of the molar value. Structures can show the parent of a compound that is named as a salt.

Assays:
Assay type in all cases: biochemical
MASP-2 (CCP1-CCP2-SP) = target: T1, MASP-2 (CCP1-CCP2-SP) (Homo sapiens, UniProt O00187); assay: Enzymatic assay for MASP-2 inhibitory activity (fluorogenic substrate)
T1 construct: 15 μL of Enzyme MASP-2 (CCP1-CCP2-SP) in Assay Buffer
T1 sequence (O00187 445-686 limits assumed): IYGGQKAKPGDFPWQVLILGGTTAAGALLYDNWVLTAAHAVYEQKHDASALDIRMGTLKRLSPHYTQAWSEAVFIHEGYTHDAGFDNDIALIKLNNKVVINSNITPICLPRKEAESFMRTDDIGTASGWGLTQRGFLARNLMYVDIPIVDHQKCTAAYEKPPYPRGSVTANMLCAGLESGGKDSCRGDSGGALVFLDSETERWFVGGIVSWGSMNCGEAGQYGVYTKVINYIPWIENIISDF
T1 sequence (O00187 287-444 partner limits assumed): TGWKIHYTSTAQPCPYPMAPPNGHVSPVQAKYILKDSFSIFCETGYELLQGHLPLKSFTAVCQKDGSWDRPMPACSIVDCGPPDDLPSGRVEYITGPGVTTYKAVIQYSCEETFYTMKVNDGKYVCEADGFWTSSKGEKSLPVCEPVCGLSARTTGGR
Outline: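 MASP-2 (CCP1-CCP2-SP) cleaved a fluorogenic substrate based on the C2 cleavage site in 20 mM HEPES pH 7.4, 140 mM NaCl, 0.1% Tween 20 at room temperature. After 20 min the reaction was stopped with 0.1 M acetic acid and fluorescence read. % activity was normalized to DMSO-only and no-enzyme controls; IC50 taken as Ki.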

human α-thrombin = target: T2, human α-thrombin (Homo sapiens, UniProt P00734); assay: Enzymatic assay for thrombin (fluorogenic peptide substrate Boc-VPR-AMC)
T2 construct: enzyme (human α-thrombin (BioPharm® Lab.)) in assay buffer; purchased BioPharm® Lab
Outline: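 Human α-thrombin was run with the fluorogenic substrate Boc-VPR-AMC in 20 mM Hepes pH 7.4, 140 mM NaCl, 0.1% Tween 20 at room temperature for 20 min, then stopped with 0.1 M acetic acid. % activity was normalized to DMSO and no-enzyme controls. Under linear conditions IC50 equalled Ki, except for tight-binding inhibitors.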

[1] = system: Lectin Pathway Activation in human serum; assay: Lectin Pathway Activation (LPA) assay in human serum, mannan-coated ELISA plate, C4c detection; conditions: 1% human serum, read-out: LPA Functional Activity (IC50)
Method: Lectin Pathway Activation (LPA) Assay in Human Serum Treated with Compounds
A microtiter ELISA plate was coated with mannan (1 mg/ml) from Saccharomyces cerevisiae (Sigma-Aldrich®, M7504) overnight at 4° C. in coating buffer [33.3 mM Na2CO3, 166.67 mM NaHCO3]. The plate was blocked with 5% bovine serum albumin (BSA) (Sigma-Aldrich®, A3294) in 1×PBST [Phosphate Buffered Saline Solution (1.06 mM KH2PO4, 155.2 mM NaCl, 2.97 mM Na2HPO4^−·7H2O, pH 7.4), 0.05% Tween-20] shaking for 2 hours at room temperature. 1% human serum was incubated with serial dilutions of small compounds in 1× LPA+ Buffer [20 mM Hepes, pH 7.4, 140 mM NaCl, 2 mM MgCl2 (6H2O)] and incubated for 5 minutes at room temperature. 40 μL of this mixture was then added to the plate, and the plate was incubated at room temperature for 55 mins. Next, the reaction was stopped by adding 20 μL of EDTA Stop Solution [20 mM Hepes, pH7.4, 140 mM NaCl, 150 mM EDTA] to the plate. The plate was then washed 10× in wash buffer 1×PBST; 40 μL of Rabbit Anti Human C4c Antibody [Dako®, Q0369] diluted 1:20000 in wash buffer was added; and the plate was incubated shaking at room temperature for 30 minutes. The plate was washed [5× times]; 40 μL of Goat Anti-rabbit Antibody-HRP Conjugate [Southern Biotech®, 4050-05] diluted 1:10000 in wash buffer was added; and the plate was incubated shaking at room temperature for 30 minutes. After that, the plate was washed five times; 40 µL/well of Amplex® UltraRed Substrate Solution [1× LPA Buffer, 10 mM Amplex® UltraRed Stock Solution [Thermo Fisher Sci.®, A36006], 3% stabilized hydrogen peroxide [Sigma Aldrich®, 216763] was added; the plate was incubated at room temperature for 16 minutes; the reaction was stopped by adding 8 µL/well of Amplex® UltraRed Stop Solution [Thermo Fisher Sci.®, A33855] in 100% EtOH. Finally, the plate was read for fluorescence at Ex: 550 nm, Em: 580 nm on the i3x Microplate Reader.

| Structure (SMILES) | pKi (MASP-2 (CCP1-CCP2-SP)) | pKi (human α-thrombin) | pIC50 [1] |
| --- | --- | --- | --- |
| [2H]C([2H])([2H])c1nc(N)ccc1CNC(=O)[C@@H]1CCc2cnc(NCc3cc(C)cc(OC)c3)c(=O)n21 [Compound 226, (S)—N-((6-amino-2-(methyl-d3)pyridin-3-yl)methyl)-3-((3-methoxy-5-methylbenzyl)amino)-4-oxo-4,6,7,8-tetrahydropyrrolo[1,2-a]pyrazine-6-carboxamide] | > 6.30 | > 6.30 | > 7.30 |
| Cc1ccc(CNc2nc(Cl)c3n(c2=O)[C@H](C(=O)NCc2ccc(N)nc2C)CC3)cc1C [Compound 27, (S)-N-((6-amino-2-methylpyridin-3-yl)methyl)-1-chloro-3-((3,4-dimethylbenzyl)amino)-4-oxo-4,6,7,8-tetrahydropyrrolo[1,2-a]pyrazine-6-carboxamide trifluoroacetate] | > 6.30 | 5.00 to 5.60 | > 7.30 |
| Cc1cc(C)cc(CNc2ncc3n(c2=O)[C@H](C(=O)NCc2cc4cnccc4n2C)CC3)c1 [Compound 41, (S)-3-((3,5-dimethylbenzyl)amino)-N-((1-methyl-1H-pyrrolo[3,2-c]pyridin-2-yl)methyl)-4-oxo-4,6,7,8-tetrahydropyrrolo[1,2-a]pyrazine-6-carboxamide trifluoroacetate] | > 6.30 | 5.60 to 6.30 | > 7.30 |
| Cc1nc(N)ccc1CNC(=O)[C@@H]1CCc2cnc(NCc3cnn(C)c3)c(=O)n21 [Compound 167, (S)-N-((6-amino-2-methylpyridin-3-yl)methyl)-3-(((1-methyl-1H-pyrazol-4-yl)methyl)amino)-4-oxo-4,6,7,8-tetrahydropyrrolo[1,2-a]pyrazine-6-carboxamide trifluoroacetate] | > 6.30 | 5.60 to 6.30 |  |
| CC[C@H]1C[C@@H](C(=O)NCc2cc3c(s2)CNC3)n2c1c(Cl)nc(NCc1ccccc1)c2=O [Compound 158, (6S,8S)-3-(benzylamino)-1-chloro-N-((5,6-dihydro-4H-thieno[2,3-c]pyrrol-2-yl)methyl)-8-ethyl-4-oxo-4,6,7,8-tetrahydropyrrolo[1,2-a]pyrazine-6-carboxamide hydrochloride] | > 6.30 | 5.00 to 5.60 |  |
| CCc1cccc(CNc2ncc3n(c2=O)[C@H](C(=O)NCc2ccc(N)nc2C)CC3)c1 [Compound 46, (S)-N-((6-amino-2-methylpyridin-3-yl)methyl)-3-((3-ethylbenzyl)amino)-4-oxo-4,6,7,8-tetrahydropyrrolo[1,2-a]pyrazine-6-carboxamide] | > 6.30 | > 6.30 |  |
| Cc1nc(N)ccc1CNC(=O)C1CCc2c(Cl)nc(NCc3cnccn3)c(=O)n21 (stereo not drawn) [Compound 149, N-((6-amino-2-methylpyridin-3-yl)methyl)-1-chloro-4-oxo-3-((pyrazin-2-ylmethyl)amino)-4,6,7,8-tetrahydropyrrolo[1,2-a]pyrazine-6-carboxamide] | > 6.30 | 5.00 to 5.60 |  |
| Cc1ccccc1[C@H](C)Nc1ncc2n(c1=O)[C@H](C(=O)NCc1cc3c(s1)CNC3)CC2 [Compound 94, (S)-N-((5,6-dihydro-4H-thieno[2,3-c]pyrrol-2-yl)methyl)-4-oxo-3-(((S)-1-(o-tolyl)ethyl)amino)-4,6,7,8-tetrahydropyrrolo[1,2-a]pyrazine-6-carboxamide] | > 6.30 | 5.60 to 6.30 |  |
| Cc1cc(F)cc(CNc2ncc3n(c2=O)[C@H](C(=O)NCc2cccc(Cl)c2)CC3)c1 [Compound 180] | 5.60 to 6.30 | 5.00 to 5.60 |  |

Next, values leading:

| pKi (MASP-2 (CCP1-CCP2-SP)) | pKi (human α-thrombin) | pIC50 [1] | Structure (SMILES) |
| --- | --- | --- | --- |
| > 6.30 | 5.00 to 5.60 | > 7.30 | CC1(C)C[C@@H](C(=O)NCc2cc3cnccc3[nH]2)n2c1cnc(NCc1ccccc1)c2=O [Compound 228, trifluoroacetate] |
| > 6.30 | > 6.30 | 6.30 to 7.30 | Cc1nc(N)ccc1CNC(=O)[C@@H]1CCc2c(Cl)nc(NCCc3cccnc3)c(=O)n21 [Compound 240] |
| > 6.30 | > 6.30 | > 7.30 | CC[C@H]1C[C@@H](C(=O)NCc2cc3cnccc3[nH]2)n2c1cnc(NCc1cc(C)cc(C)c1)c2=O [Compound 155, (6S,8S)-N-((1H-pyrrolo[3,2-c]pyridin-2-yl)methyl)-3-((3,5-dimethylbenzyl)amino)-8-ethyl-4-oxo-4,6,7,8-tetrahydropyrrolo[1,2-a]pyrazine-6-carboxamide] |
| > 6.30 | > 6.30 | > 7.30 | Cc1cc(C)cc([C@@H](CO)Nc2ncc3n(c2=O)[C@H](C(=O)NCc2cc4cnccc4[nH]2)CC3)c1 [Compound 75, (S)-N-((1H-pyrrolo[3,2-c]pyridin-2-yl)methyl)-3-(((S)-1-(3,5-dimethylphenyl)-2-hydroxyethyl)amino)-4-oxo-4,6,7,8-tetrahydropyrrolo[1,2-a]pyrazine-6-carboxamide] |
| > 6.30 | 5.00 to 5.60 |  | O=C(NCc1cc2cnccc2[nH]1)[C@@H]1C[C@H](Cc2ccccc2)c2cnc(NC3CCC3)c(=O)n21 [Compound 142, (6S,8S)-N-((1H-pyrrolo[3,2-c]pyridin-2-yl)methyl)-8-benzyl-3-(cyclobutylamino)-4-oxo-4,6,7,8-tetrahydropyrrolo[1,2-a]pyrazine-6-carboxamide] |
| > 6.30 | 5.60 to 6.30 |  | Cc1cccc(CNc2ncc3n(c2=O)[C@H](C(=O)NCc2cc4cnccc4[nH]2)CC3)c1 [Compound 115, (S)-N-((1H-pyrrolo[3,2-c]pyridin-2-yl)methyl)-3-((3-methylbenzyl)amino)-4-oxo-4,6,7,8-tetrahydropyrrolo[1,2-a]pyrazine-6-carboxamide trifluoroacetate] |
| > 6.30 | 5.00 to 5.60 |  | O=C(NCc1cc2c(s1)CNC2)[C@@H]1CCc2c(Cl)nc(NCc3ccccc3)c(=O)n21 [Compound 35] |
| > 6.30 | 5.60 to 6.30 |  | COc1cc(C)cc(CNc2ncc3n(c2=O)[C@H](C(=O)NCc2cc4cnccc4[nH]2)C[C@@H]3Cc2ccccc2)c1 [Compound 141, (6S,8S)-N-((1H-pyrrolo[3,2-c]pyridin-2-yl)methyl)-8-benzyl-3-((3-methoxy-5-methylbenzyl)amino)-4-oxo-4,6,7,8-tetrahydropyrrolo[1,2-a]pyrazine-6-carboxamide] |
| > 6.30 | 5.00 to 5.60 |  | N#Cc1cccc(CNc2nc(Cl)c3n(c2=O)[C@H](C(=O)NCc2cc4cnccc4[nH]2)CC3)c1 [Compound 144, (S)-N-((1H-pyrrolo[3,2-c]pyridin-2-yl)methyl)-1-chloro-3-((3-cyanobenzyl)amino)-4-oxo-4,6,7,8-tetrahydropyrrolo[1,2-a]pyrazine-6-carboxamide] |
| > 6.30 | 5.60 to 6.30 |  | Cc1ccc(C)c(CNc2ncc3n(c2=O)[C@H](C(=O)NCc2cc4cnccc4[nH]2)CC3)c1 [Compound 56, (S)-N-((1H-pyrrolo[3,2-c]pyridin-2-yl)methyl)-3-((2,5-dimethylbenzyl)amino)-4-oxo-4,6,7,8-tetrahydropyrrolo[1,2-a]pyrazine-6-carboxamide] |
| > 6.30 | < 4.60 |  | O=C(NCc1cc2cnccc2[nH]1)[C@@H]1CCc2c(-c3cn[nH]c3)nc(NCCc3ccccc3)c(=O)n21 [Compound 246] |
| > 6.30 | < 4.60 |  | O=C(NCc1cc2cnccc2[nH]1)[C@@H]1CC2(CC=CC2)c2c(Cl)nc(NCc3ccccc3)c(=O)n21 [Compound 233, (S)—N-((1H-pyrrolo[3,2-c]pyridin-2-yl)methyl)-3′-(benzylamino)-1′-chloro-4′-oxo-6′,7′-dihydro-4′H-spiro[cyclopentane-1,8′-pyrrolo[1,2-a]pyrazin]-3-ene-6′-carboxamide trifluoroacetate] |
| > 6.30 | 5.00 to 5.60 |  | O=C(NCc1cc2cnccc2[nH]1)[C@@H]1CCc2cnc(NCc3cccc(C(F)(F)F)c3)c(=O)n21 [Compound 117, (S)-N-((1H-pyrrolo[3,2-c]pyridin-2-yl)methyl)-4-oxo-3-((3-(trifluoromethyl)benzyl)amino)-4,6,7,8-tetrahydropyrrolo[1,2-a]pyrazine-6-carboxamide trifluoroacetate] |
